Data set [1] addresses T1, Mitogen-activated protein kinase 13 (Homo sapiens, UniProt O15264).
T1 sequence (O15264 whole entry): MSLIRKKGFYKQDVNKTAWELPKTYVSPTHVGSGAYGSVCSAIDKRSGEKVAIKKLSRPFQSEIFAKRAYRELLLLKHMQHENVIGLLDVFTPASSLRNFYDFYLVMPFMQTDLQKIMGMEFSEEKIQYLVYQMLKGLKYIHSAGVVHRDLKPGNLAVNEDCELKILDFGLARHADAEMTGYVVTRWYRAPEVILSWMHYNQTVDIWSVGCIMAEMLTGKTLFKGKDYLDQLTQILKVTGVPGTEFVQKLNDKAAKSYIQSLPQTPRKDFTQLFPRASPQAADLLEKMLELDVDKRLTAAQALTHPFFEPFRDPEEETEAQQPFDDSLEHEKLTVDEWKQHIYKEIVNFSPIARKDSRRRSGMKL
The experiment in a line: Inhibition of p38delta.

Data set [2] is described as follows: Hepatocyte microsomal extraction ratio in human. Particulars: hepatic microsomes.
Data set [3] concerns the target RAC-alpha serine/threonine-protein kinase (Homo sapiens, UniProt P31749). The experiment in a line: Inhibition of PKBalpha.
For data set [4], the target named is T2, Serine/threonine-protein kinase Sgk1 (Homo sapiens, UniProt O00141).
T2 sequence (O00141 whole entry): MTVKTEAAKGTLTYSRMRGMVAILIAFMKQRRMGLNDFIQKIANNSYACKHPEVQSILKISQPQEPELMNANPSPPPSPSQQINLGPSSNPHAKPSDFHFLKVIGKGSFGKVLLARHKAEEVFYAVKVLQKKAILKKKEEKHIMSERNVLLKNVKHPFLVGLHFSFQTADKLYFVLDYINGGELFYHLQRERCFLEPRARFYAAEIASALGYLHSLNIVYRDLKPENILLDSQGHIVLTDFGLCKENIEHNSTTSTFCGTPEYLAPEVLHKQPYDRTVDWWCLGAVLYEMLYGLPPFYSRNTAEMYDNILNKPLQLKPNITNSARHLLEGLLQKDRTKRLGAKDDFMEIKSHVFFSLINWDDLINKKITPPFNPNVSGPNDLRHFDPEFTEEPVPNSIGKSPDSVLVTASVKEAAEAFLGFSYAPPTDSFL
The experiment in a line: Inhibition of SGK.

Data set [5] concerns the target Dual specificity tyrosine-phosphorylation-regulated kinase 1A (Homo sapiens, UniProt Q13627). The data set can be described thus: Inhibition of DYRK1a.
Data set [6] deals with Mitogen-activated protein kinase 14 (Homo sapiens, UniProt Q16539). The data set can be described thus: Inhibition of p38alpha.
Mitogen-activated protein kinase 14, sequence (Q16539 whole entry): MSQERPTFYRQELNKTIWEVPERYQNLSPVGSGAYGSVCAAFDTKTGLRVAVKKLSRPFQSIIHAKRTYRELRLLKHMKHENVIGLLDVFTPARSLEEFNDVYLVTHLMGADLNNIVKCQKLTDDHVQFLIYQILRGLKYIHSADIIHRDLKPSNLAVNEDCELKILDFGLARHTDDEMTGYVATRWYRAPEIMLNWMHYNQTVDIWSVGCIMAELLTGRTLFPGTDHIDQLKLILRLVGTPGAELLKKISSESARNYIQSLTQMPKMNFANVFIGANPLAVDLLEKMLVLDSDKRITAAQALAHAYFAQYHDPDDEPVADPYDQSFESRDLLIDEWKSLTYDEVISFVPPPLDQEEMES
Data set [7] has as its target Rho-associated protein kinase 2 (Homo sapiens, UniProt O75116). The data set can be described thus: Inhibition of ROCK2.
Data set [8] addresses Glycogen synthase kinase-3 beta (Homo sapiens, UniProt P49841). The experiment in a line: Inhibition of GSK3-beta.
Data set [9] can be described thus: Inhibition of PKC.
The nature of data set [10]: Bioavailability in monkey. In kind it is ADME, organism-based, Macaca mulatta. Conditions: rhesus monkey, in vivo.
The species named for data set [11] is Rattus norvegicus. The data set can be described thus: Inhibition of LPS-induced TNFalpha release in rat. Format: functional.
Data set [12] can be described thus: Half life in monkey. In kind it is ADME, organism-based, Macaca mulatta. Particulars: rhesus monkey, in vivo.
Data set [13] is described as follows: Half life in rat. In kind it is ADME, organism-based. Conditions: in vivo.
A short description of data set [14]: Volume of distribution in monkey. Particulars: rhesus monkey, in vivo; read-out: Vdss. Format: ADME, organism-based, Macaca mulatta.
A short description of data set [15]: Volume of distribution in rat. In kind it is ADME, organism-based. Conditions: in vivo, read-out: Vdss.
Data set [16] is described as follows: Solubility in PBS buffer at ph 6.5. In kind it is physicochemical.
Data set [17] deals with hERG (KCNH2) (Homo sapiens, UniProt Q12809). The experiment in a line: Inhibition of hERG channel current in HEK293 cells at 3 uM. Format: toxicity, cell-based. Conditions: HEK293 cells that express hERG. (In general: The hERG channel carries a current that helps repolarise heart muscle cells.)
hERG (KCNH2), sequence (Q12809 whole entry): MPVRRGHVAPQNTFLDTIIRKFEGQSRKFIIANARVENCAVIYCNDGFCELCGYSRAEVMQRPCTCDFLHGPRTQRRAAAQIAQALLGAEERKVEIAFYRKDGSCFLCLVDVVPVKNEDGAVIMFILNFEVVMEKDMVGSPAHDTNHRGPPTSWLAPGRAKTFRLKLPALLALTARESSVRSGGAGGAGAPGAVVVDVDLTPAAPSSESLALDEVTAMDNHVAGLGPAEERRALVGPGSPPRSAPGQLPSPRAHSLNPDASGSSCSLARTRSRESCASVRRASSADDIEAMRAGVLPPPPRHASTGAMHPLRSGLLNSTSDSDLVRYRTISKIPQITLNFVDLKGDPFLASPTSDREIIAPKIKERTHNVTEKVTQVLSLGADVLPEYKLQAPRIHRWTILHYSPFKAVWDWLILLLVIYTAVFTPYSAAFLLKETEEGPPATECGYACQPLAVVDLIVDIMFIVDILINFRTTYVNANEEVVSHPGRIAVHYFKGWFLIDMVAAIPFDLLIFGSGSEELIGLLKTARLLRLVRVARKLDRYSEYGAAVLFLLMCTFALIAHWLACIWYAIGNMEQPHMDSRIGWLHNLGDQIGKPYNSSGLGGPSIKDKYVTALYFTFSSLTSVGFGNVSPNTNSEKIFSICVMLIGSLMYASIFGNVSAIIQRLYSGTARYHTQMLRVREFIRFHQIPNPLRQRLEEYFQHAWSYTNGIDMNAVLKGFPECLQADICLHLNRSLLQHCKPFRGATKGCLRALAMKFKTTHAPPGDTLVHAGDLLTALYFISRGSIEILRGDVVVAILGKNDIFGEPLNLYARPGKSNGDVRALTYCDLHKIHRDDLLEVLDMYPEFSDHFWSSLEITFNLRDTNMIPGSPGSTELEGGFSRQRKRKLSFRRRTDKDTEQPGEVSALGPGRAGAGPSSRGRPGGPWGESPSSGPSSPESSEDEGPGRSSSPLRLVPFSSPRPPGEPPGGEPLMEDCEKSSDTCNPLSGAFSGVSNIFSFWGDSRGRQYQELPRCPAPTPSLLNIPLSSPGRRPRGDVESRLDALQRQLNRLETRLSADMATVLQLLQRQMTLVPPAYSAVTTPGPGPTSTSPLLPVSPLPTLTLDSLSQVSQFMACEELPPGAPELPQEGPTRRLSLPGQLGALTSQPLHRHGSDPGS
Data set [18] can be described thus: Plasma clearance in rat. Format: ADME, organism-based.
Data set [19] in a line: Plasma clearance in monkey. Format: ADME, organism-based, Macaca mulatta. Particulars: rhesus monkey.
A short description of data set [20]: Bioavailability in rat. Format: ADME, organism-based. Conditions: in vivo.
Data set [21] can be described thus: Permeability from basolateral to apical side of Caco-2 cell membrane. Format: ADME, cell-based. Conditions: human.
Data set [22] in a line: Permeability from apical to basolateral side of Caco-2 cell membrane. In kind it is ADME, cell-based. Particulars: human. A general note: Caco-2 cells form a polarised layer with tight junctions and transporters.
For data set [23], the target named is Casein kinase II (Homo sapiens, UniProt P19784+P67870+P68400). The experiment in a line: Inhibition of CK2. Format: protein-complex assay.
Casein kinase II, sequence (P67870 whole entry): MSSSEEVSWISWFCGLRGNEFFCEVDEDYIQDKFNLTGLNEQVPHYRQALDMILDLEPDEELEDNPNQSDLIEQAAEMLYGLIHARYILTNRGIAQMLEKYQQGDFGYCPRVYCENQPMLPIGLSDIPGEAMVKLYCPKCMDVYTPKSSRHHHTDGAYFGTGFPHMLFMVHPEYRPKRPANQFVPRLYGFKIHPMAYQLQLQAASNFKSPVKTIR
Casein kinase II, sequence (P68400 whole entry): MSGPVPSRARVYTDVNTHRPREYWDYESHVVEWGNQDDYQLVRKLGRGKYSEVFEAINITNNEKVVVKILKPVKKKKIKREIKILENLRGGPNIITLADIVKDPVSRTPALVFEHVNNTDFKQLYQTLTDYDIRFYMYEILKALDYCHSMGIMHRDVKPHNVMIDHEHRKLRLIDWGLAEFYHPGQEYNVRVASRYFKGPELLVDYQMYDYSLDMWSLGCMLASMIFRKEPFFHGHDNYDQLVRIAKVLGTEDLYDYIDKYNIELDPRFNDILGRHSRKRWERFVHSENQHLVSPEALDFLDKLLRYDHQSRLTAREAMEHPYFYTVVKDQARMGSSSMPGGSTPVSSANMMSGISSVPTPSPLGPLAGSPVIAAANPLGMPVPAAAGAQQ
Casein kinase II, sequence (P19784 whole entry): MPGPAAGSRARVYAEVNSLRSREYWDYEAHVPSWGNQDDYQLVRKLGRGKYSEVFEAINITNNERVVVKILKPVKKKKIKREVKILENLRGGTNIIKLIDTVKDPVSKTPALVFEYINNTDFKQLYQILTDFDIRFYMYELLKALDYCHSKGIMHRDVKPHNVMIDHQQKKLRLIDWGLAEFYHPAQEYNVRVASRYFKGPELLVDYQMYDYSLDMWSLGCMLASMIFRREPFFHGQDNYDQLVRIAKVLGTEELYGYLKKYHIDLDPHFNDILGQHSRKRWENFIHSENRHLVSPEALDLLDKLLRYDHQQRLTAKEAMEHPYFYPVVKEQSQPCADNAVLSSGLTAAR

The values that follow come from ChEMBL document CHEMBL1145312, “Structure-activity relationships of triazolopyridine oxazole p38 inhibitors: identification of candidates for clinical development” (Bioorg Med Chem Lett, 2006).

For orientation: IC50 means the concentration that inhibits the measured activity by half. The bioavailability is the share of a dose that reaches the circulation, judged against a reference dose that is usually intravenous. What is called ED50 is the dose at which the effect has come halfway, by size or by number of responders. The half-life is the time in which the quantity being followed falls by half. Broadly, the solubility is the dissolved amount per volume that the medium holds. One may read the inhibition as the change of the read-out against control, counted positive when it falls. What is called clearance is the volume of plasma or blood freed of the substance per unit of time. As usually defined, the Papp B→A is how fast a substance crosses the layer from the basolateral side. Usually Papp A→B stands for the apparent permeability from the apical to the basolateral side of a cell layer.

Converted amounts (≈) assume the structure as drawn.

Glycogen synthase kinase-3 beta, sequence (P49841 whole entry): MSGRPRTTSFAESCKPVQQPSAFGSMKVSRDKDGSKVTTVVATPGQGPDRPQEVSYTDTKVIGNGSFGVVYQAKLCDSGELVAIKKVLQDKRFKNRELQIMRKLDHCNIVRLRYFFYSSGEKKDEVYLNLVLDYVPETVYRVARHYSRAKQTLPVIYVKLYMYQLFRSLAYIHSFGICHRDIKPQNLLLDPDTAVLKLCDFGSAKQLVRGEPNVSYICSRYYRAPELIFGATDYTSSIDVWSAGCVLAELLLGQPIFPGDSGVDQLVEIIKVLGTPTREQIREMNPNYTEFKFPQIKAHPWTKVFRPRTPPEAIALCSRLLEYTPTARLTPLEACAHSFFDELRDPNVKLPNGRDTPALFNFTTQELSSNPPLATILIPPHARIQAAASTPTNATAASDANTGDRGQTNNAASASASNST
RAC-alpha serine/threonine-protein kinase, sequence (P31749 whole entry): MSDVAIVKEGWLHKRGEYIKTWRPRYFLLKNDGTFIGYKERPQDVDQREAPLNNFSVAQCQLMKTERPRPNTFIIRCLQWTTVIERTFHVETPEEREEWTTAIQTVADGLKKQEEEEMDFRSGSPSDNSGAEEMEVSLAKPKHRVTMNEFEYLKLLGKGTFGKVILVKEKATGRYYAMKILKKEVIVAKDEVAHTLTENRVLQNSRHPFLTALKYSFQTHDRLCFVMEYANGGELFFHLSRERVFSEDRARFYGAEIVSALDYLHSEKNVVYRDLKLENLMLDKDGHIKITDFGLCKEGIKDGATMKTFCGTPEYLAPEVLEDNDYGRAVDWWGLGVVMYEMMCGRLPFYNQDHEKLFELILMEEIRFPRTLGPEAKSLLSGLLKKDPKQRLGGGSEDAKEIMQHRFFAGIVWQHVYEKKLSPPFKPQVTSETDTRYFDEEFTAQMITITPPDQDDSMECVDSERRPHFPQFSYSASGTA
Rho-associated protein kinase 2, sequence (O75116 whole entry): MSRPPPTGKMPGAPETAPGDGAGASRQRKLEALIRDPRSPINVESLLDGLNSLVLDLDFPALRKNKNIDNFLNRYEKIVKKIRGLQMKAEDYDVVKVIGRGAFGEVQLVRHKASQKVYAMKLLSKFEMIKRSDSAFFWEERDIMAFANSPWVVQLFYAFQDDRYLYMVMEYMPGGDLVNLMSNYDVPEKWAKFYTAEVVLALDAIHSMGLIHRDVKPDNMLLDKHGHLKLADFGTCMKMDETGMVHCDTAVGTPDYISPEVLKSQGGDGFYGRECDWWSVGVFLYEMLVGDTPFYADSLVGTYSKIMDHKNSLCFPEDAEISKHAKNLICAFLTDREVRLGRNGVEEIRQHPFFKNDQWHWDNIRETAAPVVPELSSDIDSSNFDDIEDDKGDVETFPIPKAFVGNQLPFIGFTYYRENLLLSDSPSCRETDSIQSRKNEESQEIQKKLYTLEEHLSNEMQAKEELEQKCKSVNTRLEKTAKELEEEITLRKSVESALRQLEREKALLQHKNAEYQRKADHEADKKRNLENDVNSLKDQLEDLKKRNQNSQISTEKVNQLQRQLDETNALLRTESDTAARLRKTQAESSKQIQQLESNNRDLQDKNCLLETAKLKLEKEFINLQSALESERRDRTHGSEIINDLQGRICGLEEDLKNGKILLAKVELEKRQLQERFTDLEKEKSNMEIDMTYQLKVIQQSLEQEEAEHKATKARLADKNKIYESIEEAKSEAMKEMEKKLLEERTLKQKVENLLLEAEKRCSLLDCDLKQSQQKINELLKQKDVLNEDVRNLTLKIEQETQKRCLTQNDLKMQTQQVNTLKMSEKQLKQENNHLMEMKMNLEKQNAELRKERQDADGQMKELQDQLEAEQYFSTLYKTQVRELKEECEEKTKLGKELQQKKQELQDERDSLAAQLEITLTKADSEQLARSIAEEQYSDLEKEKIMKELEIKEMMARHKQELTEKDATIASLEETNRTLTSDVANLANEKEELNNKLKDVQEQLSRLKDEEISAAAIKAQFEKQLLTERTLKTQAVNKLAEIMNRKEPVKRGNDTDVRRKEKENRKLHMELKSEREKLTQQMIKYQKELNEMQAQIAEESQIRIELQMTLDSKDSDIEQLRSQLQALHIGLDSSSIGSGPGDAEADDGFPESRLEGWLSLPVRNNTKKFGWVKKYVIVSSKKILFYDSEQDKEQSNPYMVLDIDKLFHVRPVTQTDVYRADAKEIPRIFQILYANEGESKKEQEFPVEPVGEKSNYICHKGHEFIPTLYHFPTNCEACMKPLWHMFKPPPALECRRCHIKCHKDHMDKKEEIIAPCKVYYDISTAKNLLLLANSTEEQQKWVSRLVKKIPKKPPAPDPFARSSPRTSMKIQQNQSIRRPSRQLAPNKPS

Turning to `CC(C)(C)c1nnc2ccc(-c3ocnc3-c3ccc(F)cc3F)cn12`, the IC50 in [1] was greater than 10 µM; in data set [3], greater than 10 µM; in [4] it was greater than 10 µM; in data set [5] it was greater than 10 µM; in [6], 0.0011 µM; in data set [7], greater than 10 µM. In addition, the IC50 in data set [8] and in data set [9] was greater than 10 µM in each case. Also, the hepatic extraction ratio in data set [2] was less than 0.3.
`CC(C)(C)c1nnc2ccc(-c3ocnc3-c3cc(F)c(F)cc3F)cn12`: the bioavailability amounted to 66% in data set [10] and 54% in [20]. The molecule also showed an ED50 in [11] of 0.1 mg/kg. The half-life in [12] was 5.2 h; in data set [13], 2.6 h. Moreover, the IC50 in [1] was greater than 10 µM; in data set [3], greater than 10 µM; in data set [4], greater than 10 µM; in data set [5] it was greater than 10 µM; in [6], 0.0018 µM; in data set [7], greater than 10 µM. The IC50 in data set [8] and in data set [9] was greater than 10 µM in each case. Further, the Vd is 1.2 L/kg in [14] and 0.6 L/kg in data set [15]. In addition, the concentration in solution in data set [16] (solubility) came to 0.041 mg/mL (≈ 110 µM). The same molecule displayed an inhibition at 3 µM in [17] of 5.9%. In addition, the clearance in [18] came out at 0.18 L/h/kg; in [19] it was 0.204 L/h/kg.
`CCNc1nnc2ccc(-c3ocnc3-c3ccc(F)cc3)cn12`: the IC50 in [1] was greater than 10 µM; in data set [3], greater than 10 µM; in [4], greater than 10 µM; in data set [5], greater than 10 µM; in data set [6], 0.0076 µM; in data set [7], greater than 10 µM. Moreover, the IC50 in [8] and in [9] was greater than 10 µM each time.
Take `CC(C)c1nnc2ccc(-c3c[nH]nc3-c3cc(F)ccc3F)cn12`: the IC50 in data set [1] is greater than 10 µM; in data set [3], greater than 10 µM; in [4] it was greater than 10 µM; in data set [5] it was greater than 10 µM; in data set [6], 0.0028 µM; in data set [7], greater than 10 µM. In addition, the IC50 in data set [8] and in [9] was greater than 10 µM in each case. This molecule showed a Papp B→A in data set [21] of 180 nm/s. This molecule also displayed a Papp A→B in data set [22] of 60 nm/s.
With `CC(C)c1nnc2ccc(-c3ocnc3-c3ccccc3)cn12`, the IC50 is greater than 10 µM in data set [1]; greater than 10 µM in data set [3]; greater than 10 µM in data set [4]; greater than 10 µM in data set [5]; 0.0096 µM in [6]; greater than 10 µM in data set [7]. Besides, the IC50 in [8], in data set [23] and in data set [9] was greater than 10 µM throughout.
